Publication PMC5622107, “Small molecule inhibition of cGAS reduces interferon expression in primary macrophages from autoimmune mice” (Nature Communications, 2017)
Where two headings read alike, the source gives them in different places.

Target: T1, mouse cGAS (Mus musculus, UniProt Q8C6L5)
T1 construct: recombinant full-length mouse cGAS in reaction buffer; His6-SUMO (N, cleaved yes); made in house; host or cells: E. coli BL21(DE3) RIL
Assay: RapidFire mass spectrometry (RF-MS) cGAS enzymatic assay, cGAMP product formation
Type: biochemical
Conditions: for IC50: read-out: IC50; for effect of structural modification on cGAS inhibitory potency: compared with RU.365; for kcat / Km: substrate of mouse cGAS, no inhibitor; for Km: allosteric sigmoidal fitting
Description: The liquid was collected at the well bottom using centrifugation for 30 s at 180×g. […] Plates were centrifuged for 30 s at 180×g to collect all liquid at the bottom of the wells. […] The reaction was stopped by addition of 65 µl of 0.5% (v/v) formic acid per well. The plates were centrifuged for 30 s at 180×g and sealed with a Velocity11 PlateLoc thermal plate sealer.
The solvent used for loading/washing process was an aqueous solution of 5 mM ammonium acetate, pH 10. […] Each sample of approximately 35 µl were aspirated from a 384-well plate and separated using a Graphitic carbon Type D cartridge. After each sample was loaded onto the cartridge it was washed for 4 s at 1.5 ml min^−1 using the aqueous solvent. ATP, GTP and cGAMP were eluted for 5 s using the organic solvent at a flow rate of 1.5 ml min^−1. The cartridge was then re-equilibrated with the aqueous solvent for 5 s at a flow rate of 1.5 ml min^−1. All samples were analyzed using a negative ionization mode in the mass spectrometer, with a gas temperature of 350 °C, nebulizer pressure of 35 psig, gas flow rate of 15 l min^−1. […] The Agilent RapidFire Integrator software was used to calculate the area under the curve (AUC) of the extracted ion counts for each analyte. Data points represent values of product formation. Catalytic rates expressed as percent product formation were calculated using the AUC of cGAMP and using the AUC’s of ATP and GTP to normalize for variations in the capacity of the solid phase extraction column during a screening run, as shown in the following formula: product formation (%) = [(AUCcGAMP × 100)/(AUCcGAMP + ½ AUCATP + ½ AUCGTP)].
To determine the percent inhibition of mouse cGAS the data was normalized against the positive control (column 24) and negative control (column 23). […] The quality of the screen was assessed by Z′ factor[57] calculated as follows: Z′ = 1−[3∗(standard deviation positive control + standard deviation negative control)/(average positive control—average negative control)].

[1] = Supplementary Table 4, analogs of RU166365, m-cGAS inhibition
[2] = Supplementary Table 3, analogs more potent than RU166365

T1 sequence (Q8C6L5 whole entry): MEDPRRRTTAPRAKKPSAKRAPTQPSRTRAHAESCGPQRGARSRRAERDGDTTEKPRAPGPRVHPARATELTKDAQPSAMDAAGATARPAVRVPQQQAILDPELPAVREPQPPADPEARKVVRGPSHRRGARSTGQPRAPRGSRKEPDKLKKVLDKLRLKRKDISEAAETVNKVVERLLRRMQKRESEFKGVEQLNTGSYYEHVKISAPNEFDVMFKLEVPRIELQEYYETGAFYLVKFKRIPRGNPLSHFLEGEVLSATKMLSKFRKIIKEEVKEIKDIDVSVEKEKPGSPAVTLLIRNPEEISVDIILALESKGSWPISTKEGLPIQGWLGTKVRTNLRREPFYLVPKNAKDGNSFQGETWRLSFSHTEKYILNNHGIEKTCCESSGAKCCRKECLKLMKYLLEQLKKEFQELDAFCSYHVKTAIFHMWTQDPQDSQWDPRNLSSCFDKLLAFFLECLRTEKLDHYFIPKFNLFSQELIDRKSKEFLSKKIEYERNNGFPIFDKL

Structure (SMILES)	IC50 [1]	also measured
Cc1ccc(-c2cc(O)n(-c3nc4ccccc4[nH]3)n2)cc1 [RU281319]	> 25 µM	–
Cc1cc(O)n(-c2nc3ccccc3[nH]2)n1 [RU281324]	> 25 µM	–
CC(=O)N1CCc2c(c(C)nn2-c2nc3ccccc3[nH]2)C1c1ccccc1 (stereo not drawn) [RU320517]	> 25 µM	–
Cc1nn(-c2nc3cc(Cl)cc(Cl)c3[nH]2)c(O)c1C1OC(=O)c2ccccc21 (stereo not drawn) [RU320582]	–	IC50 [2]: 0.12 µM; effect of structural modification on cGAS inhibitory potency: increased inhibitory potency; improvement in potency (relative to RU.365): 17 fold
Nc1nc2c(ncn2[C@@H]2O[C@H](COP(=O)(O)OP(=O)(O)OP(=O)(O)O)[C@@H](O)[C@H]2O)c(=O)[nH]1 [GTP]	–	kcat: 0.383 s⁻¹; Km: 96.4 ± 5.1 µM
COC(=O)C1=C(C)NC(C)=C(C(=O)OC)C1c1ccccc1[N+](=O)[O-] [RU199]	–	IC50 (Supplementary Table 2, batch of compounds stored in the screening library): 0.8 µM; inhibition at 12.5 µM (Supplementary Table 2, compound 12.5 µM, read-out: % inhibition at 12.5 µM): 91%
CC(=O)N1CCc2nn(-c3nc4ccccc4[nH]3)c(C)c2C1c1ccccc1 (stereo not drawn) [RU320518]	> 25 µM	–
COc1cccc2c1C(c1c(C)nn(-c3nc4ccccc4[nH]3)c1O)OC2=O (stereo not drawn) [RU320503]	> 25 µM	–
COc1ccc2c(c1)C(=O)OC2c1c(C)nn(-c2nc3ccccc3[nH]2)c1O (stereo not drawn) [RU320468]	–	IC50 [2]: 1.43 µM; effect of structural modification on cGAS inhibitory potency: only minor variations in potency
Cc1nn(-c2nc3ccccc3[nH]2)c(O)c1C1NC(=O)c2ccccc21 (stereo not drawn) [RU320465]	> 25 µM	effect of structural modification on cGAS inhibitory potency: abolished inhibitory activity
CCCc1c(C)nn(-c2nc3ccccc3[nH]2)c1O [RU166418]	> 25 µM	–
Cc1nn(-c2nc3ccccc3[nH]2)c(O)c1C1OC(=O)c2cccc(Br)c21 (stereo not drawn) [RU320504]	19.6 µM	–
Cc1nn(-c2nc3ccc(Br)cc3[nH]2)c(O)c1C1OC(=O)c2ccccc21 (stereo not drawn) [RU320462]	–	IC50 [2]: 0.64 µM; effect of structural modification on cGAS inhibitory potency: increased inhibitory potency
Cc1ccc2nc(-n3nc(C)c(C4OC(=O)c5ccccc54)c3O)[nH]c2c1 (stereo not drawn) [RU320461]	–	IC50 [2]: 0.86 µM; effect of structural modification on cGAS inhibitory potency: increased inhibitory potency
CC(C)c1c(C2OC(=O)c3ccccc32)c(O)nn1-c1nc2ccccc2[nH]1 (stereo not drawn) [RU320514]	> 25 µM	–
Nc1ncnc2c1ncn2[C@@H]1O[C@H](COP(=O)(O)OP(=O)(O)OP(=O)(O)O)[C@@H](O)[C@H]1O [ATP]	–	kcat: 0.383 s⁻¹; Km: 86 ± 6.7 µM
Cc1nn(-c2nc3ccccc3[nH]2)c(O)c1C1OC(=O)c2cccc(C(=O)O)c21 (stereo not drawn) [RU320516]	> 25 µM	–
COC(=O)c1cccc2c1C(c1c(C)nn(-c3nc4ccccc4[nH]3)c1O)OC2=O (stereo not drawn) [RU320513]	> 25 µM	–
Cc1nn(-c2nc3cccc(Cl)c3[nH]2)c(O)c1C1OC(=O)c2ccccc21 (stereo not drawn) [RU320520]	–	IC50 [2]: 0.62 µM; effect of structural modification on cGAS inhibitory potency: increased inhibitory potency

The remaining compounds from weak to strong by IC50 [1], led by results:

IC50 [1]	Structure (SMILES)	also measured
18 µM	Cc1nn(-c2nc3ccc(C(=O)O)cc3[nH]2)c(O)c1C1OC(=O)c2ccccc21 (stereo not drawn) [RU320577]	–
11 µM	Cc1nn(-c2nc3ncccc3[nH]2)c(O)c1C1OC(=O)c2ccccc21 (stereo not drawn) [RU320502]	–
8.58 µM	COC(=O)c1ccc2c(c1)C(c1c(C)nn(-c3nc4ccccc4[nH]3)c1O)OC2=O (stereo not drawn) [RU320512]	–
7.16 µM	CC(C)c1nn(-c2nc3ccccc3[nH]2)c(O)c1C1OC(=O)c2ccccc21 (stereo not drawn) [RU320515]	–
6.84 µM	COC(=O)c1cccc2c1C(=O)OC2c1c(C)nn(-c2nc3ccccc3[nH]2)c1O (stereo not drawn) [RU320511]	–
3.36 µM	Cc1nn(-c2nc3ccc(-c4ccccc4)cc3[nH]2)c(O)c1C1OC(=O)c2ccccc21 (stereo not drawn) [RU320578]	–
3.3 µM	Cc1nn(-c2nc3cccc(C(F)(F)F)c3[nH]2)c(O)c1C1OC(=O)c2ccccc21 (stereo not drawn) [RU320581]	–
2.46 µM	COC(=O)Cc1cccc2c1C(=O)OC2c1c(C)nn(-c2nc3ccccc3[nH]2)c1O (stereo not drawn) [RU320579]	–
2.35 µM	Cc1nn(-c2nc3cccc(-c4ccccc4)c3[nH]2)c(O)c1C1OC(=O)c2ccccc21 (stereo not drawn) [RU320575]	–
2.24 µM	Cc1nn(-c2nc3ccccc3[nH]2)c(O)c1C1OC(=O)c2ccc(Br)cc21 (stereo not drawn) [RU320464]	–
